# Reference: patent US9241943B2, “Oxathiazine derivatives as antibacterial and anticancer agents” (GEISTLICH PHARMA AG, priority 2012, dated 2016)
# Experiments:
# [1] = system: cancers identified herein; assay: Administration to patients having cancers (Example 5); assay type: in vivo, human; conditions: Example 5, written in present tense
# [2] = system: murine SMA560 glioma cancer stem cells (CSC); assay: Cytotoxicity assay in murine SMA560 glioma cancer stem cells; assay type: cell-based, mouse; conditions: for sensitivity of CSCs relative to corresponding glioma bulk cells, based on EC50: murine SMA 560 CSCs vs bulk cells
# Description: (§1) Tissue samples from high grade gliomas WHO grade IV from newly diagnosed patients (medium age of 54±10 years) were minced mechanically, digested enzymatically and the dissociated cells were filtered. The isolated tumor cells were cultured as bulk cells. Cancer Stem Cells (CSCs) were isolated by the formation of neurospheres under neurosphere conditions (using neurobasal medium) from the murine SMA 560 glioma cell line or from freshly isolated human glioblastoma cells.
# (§2) Bulk glioma tumor cells were cultured and incubated with taurolidine or taurultam for 24h or 48h as described previously (Rodak et al., J. Neurosurg. 102, 1055-1068, 2005). CSCs were cultured for 7 days and subsequently exposed to taurolidine, taurultam or temozolamide for 24 hours. The number of remaining adherent cells were stained (crystal violet or Alamar Blue) and quantified by absorbance measurements (540 nm). Cell survival was expressed as the percentage of cells surviving relative to the number of cells surviving in untreated control cultures. The results are given as % killing rate or EC50 as the dose required for half-maximal cytotoxicity.
# Mouse CSCs were generated from the SMA560 glioma cell line and cultured for 7 days. The CSCs were treated with the same concentration of taurolidine and taurultam as above and cytotoxicity was determined after 24 hours.
# [3] = system: human glioblastoma bulk cells; conditions: cited from earlier work
# [4] = system: murine SMA 560 bulk glioma cells; assay: Cytotoxicity assay in murine SMA 560 bulk glioma cells; assay type: cell-based, mouse
# Description: as §1
# as §2, with “The results are given as % killing rate or EC50 as the dose required for half-maximal cytotoxicity.” left out
# The mouse SMA560 glioma cell line was used to provide tumor bulk cells and CSCs. Following incubation of SMA560 bulk cells with various concentrations of taurolidine and taurultam (6.25, 12.5, 25, 50, 100, 200 μg/ml), cytotoxicity was determined after 24 h and 48 h of incubation.
# [5] = system: human glioma cell line LN-229; assay: Cytotoxicity assay (crystal violet) in LN-229 cells; assay type: cell-based; conditions: 24 h, high values correspond to high cell viability
# Description: Cell lines: The human glioma cell line LN-229 was used as described previously (Rodak et al. 2005) as well as the human colon adenocarcinoma cell line SW480.
# Cytotoxicity assay: Dissociated LN-229 cells were seeded into 96-well plates at a density of 10^4 cells per well in 100 μl of culture medium. Approximately 24 h later, when the cells had reached 70-80% confluency, the medium was changed and treatment with compound #2250 (4.0-1000 μg/ml), taurolidine (4.0-1000 μg/ml) or standard medium was started. Triplicate cultures were prepared for each sample. After 24 h of incubation at […], the remaining adherent viable cells were stained using crystal violet as described (Rodack et al. 2005). Cell viability was determined by measuring the absorbancy at 540 nm. The results are expressed as killing rate given by the difference between 100% of cells and percentage of cells surviving. EC50 values correspond to the concentration inducing 50% cell death.
# [6] = system: human glioma cell line LN-229; assay: as above; assay type: cell-based
# [7] = measured in patients; cited from earlier work
# [8] = system: cancer stem cells (CSC) derived from four glioblastoma patients; assay type: cell-based, human
# Description: as §1, §2
# CSCs were isolated from glioblastoma tissue resected from four patients. The same range of concentrations of taurolidine and taurultam was applied as above and the cytotoxicity was measured after 24 hours of incubation with drug. […]
smiles,measurement,setting,value
O=S1(=O)CCN(CN2CCS(=O)(=O)OC2)CO1 [B3],efficacy in treating cancers in patients,[1],effective in treating such cancers
O=S1(=O)CCOCO1 [A3],efficacy in treating cancers in patients,[1],effective in treating such cancers
CN1COCCS1(=O)=O [Compound 2255],efficacy in treating cancers in patients,[1],effective in treating such cancers
"O=S1(=O)CCNCN1 [Taurultam, taurultam]",EC50 cytotoxicity,[2],10 µg/mL
same,"sensitivity of CSCs relative to corresponding glioma bulk cells, based on EC50",[2],~2 fold
same,EC50 cytotoxicity,[3],~50 µg/mL
same,EC50 cytotoxicity,[4],19.3 µg/mL
O=S1(=O)CCN(CN2COCCS2(=O)=O)CN1 [B1],efficacy in treating cancers in patients,[1],effective in treating such cancers
"O=S1(=O)CCOCN1 [Compound 2250, Tetrahydro1,4,5-oxathiazin-4-dioxid]",OD (absorbance at 540 nm),[5]; 4 μg/ml,1.477
same,OD (absorbance at 540 nm),[5]; 8 μg/ml,1.527
same,OD (absorbance at 540 nm),[5]; 15.5 μg/ml,1.482
same,OD (absorbance at 540 nm),[5]; 31 μg/ml,1.482
same,OD (absorbance at 540 nm),[5]; 62.5 μg/ml,0.372
same,OD (absorbance at 540 nm),[5]; 125 μg/ml,0.199
same,OD (absorbance at 540 nm),[5]; 250 μg/ml,0.120
same,OD (absorbance at 540 nm),[5]; 500 μg/ml,0.141
same,OD (absorbance at 540 nm),[5]; 1000 μg/ml,0.189
same,effect on tumor cell morphology,[6],causes blebbing of tumor cells
same,efficacy in treating cancers in patients,[1],effective in treating such cancers
"O=S1(=O)CCN(CN2CCS(=O)(=O)NC2)CN1 [Taurolidine, taurolidine]",OD (absorbance at 540 nm),[5]; 4 μg/ml,1.530
same,OD (absorbance at 540 nm),[5]; 8 μg/ml,1.478
same,OD (absorbance at 540 nm),[5]; 15.5 μg/ml,1.434
same,OD (absorbance at 540 nm),[5]; 31 μg/ml,1.132
same,OD (absorbance at 540 nm),[5]; 62.5 μg/ml,0.317
same,OD (absorbance at 540 nm),[5]; 125 μg/ml,0.305
same,OD (absorbance at 540 nm),[5]; 250 μg/ml,0.165
same,OD (absorbance at 540 nm),[5]; 500 μg/ml,0.098
same,OD (absorbance at 540 nm),[5]; 1000 μg/ml,0.109
same,"sensitivity of CSCs relative to corresponding glioma bulk cells, based on EC50",[2],about 3 fold
same,EC50 cytotoxicity,[3],~50 µg/mL
same,EC50,"[4]; Mus musculus, SMA 560 bulk cells, no major difference between 24 h and 48 h",34.6 µg/mL
O=S1(=O)CCN(CN2CCS(=O)(=O)OC2)CN1 [B2],efficacy in treating cancers in patients,[1],effective in treating such cancers
O=S1(=O)CCOCN1CN1COCCS1(=O)=O [Compound 2245],efficacy in treating cancers in patients,[1],effective in treating such cancers
"Cn1nnc2c(C(N)=O)ncn2c1=O [Temozolamide, temozolamide]",peak plasma levels,[7],13.7 µg/mL
same,"Cytotoxicity EC50 24 h, Mean ± SD",[8],68.5 ± 26 µg/mL
O=S1(=O)CCNCO1 [A1],efficacy in treating cancers in patients,[1],effective in treating such cancers
